Among the data in patent US11040981B2, “Pyrrolotriazine compounds and methods of inhibiting TAM kinases” (Syros Pharmaceuticals, Inc., priority 2017, dated 2021) are IC50 values, retold here.

The target of one test is T1, TYRO3 (Homo sapiens, UniProt Q06418).
T1 sequence (Q06418 41-890): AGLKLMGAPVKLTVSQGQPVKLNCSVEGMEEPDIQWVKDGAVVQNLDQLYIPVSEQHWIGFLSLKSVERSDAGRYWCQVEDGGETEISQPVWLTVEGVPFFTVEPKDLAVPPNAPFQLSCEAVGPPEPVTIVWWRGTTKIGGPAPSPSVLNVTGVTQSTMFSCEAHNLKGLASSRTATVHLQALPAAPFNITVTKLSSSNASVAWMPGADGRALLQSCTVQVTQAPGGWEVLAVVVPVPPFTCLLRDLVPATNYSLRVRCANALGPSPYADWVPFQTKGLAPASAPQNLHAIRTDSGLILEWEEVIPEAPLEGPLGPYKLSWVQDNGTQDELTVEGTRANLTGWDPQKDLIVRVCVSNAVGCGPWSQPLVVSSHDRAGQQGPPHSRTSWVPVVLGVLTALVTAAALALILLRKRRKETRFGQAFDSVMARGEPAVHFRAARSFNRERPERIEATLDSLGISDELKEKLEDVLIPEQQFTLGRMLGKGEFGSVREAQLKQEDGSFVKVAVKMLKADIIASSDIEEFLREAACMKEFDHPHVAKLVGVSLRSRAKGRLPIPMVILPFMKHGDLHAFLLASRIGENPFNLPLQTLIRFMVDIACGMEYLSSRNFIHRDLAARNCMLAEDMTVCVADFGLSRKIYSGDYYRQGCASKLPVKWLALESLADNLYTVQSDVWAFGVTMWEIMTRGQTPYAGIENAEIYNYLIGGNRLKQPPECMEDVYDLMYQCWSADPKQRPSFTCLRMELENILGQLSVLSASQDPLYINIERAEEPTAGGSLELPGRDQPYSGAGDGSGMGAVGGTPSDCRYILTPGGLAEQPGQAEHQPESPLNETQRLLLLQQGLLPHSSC
Kind of test: TR-FRET kinase activity assay, TYRO3. Format: biochemical. As to conditions: ATP at Km, 60 minutes. In a few lines:
(§1)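 IC50 reflects the drop in TR-FRET between Eu anti-phosphotyrosine antibody and labelled peptide after a 60-minute room-temperature reaction. Buffer was 50 mM HEPES pH 7.5 with 10 mM MgCl2, 1 mM EGTA, 0.01% Brij 35 and 1 mM DTT, with ATP at Km per enzyme and EDTA quench.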

The next test concerns the target T2, AXL (Homo sapiens, UniProt P30530).
T2 sequence (P30530 26-894): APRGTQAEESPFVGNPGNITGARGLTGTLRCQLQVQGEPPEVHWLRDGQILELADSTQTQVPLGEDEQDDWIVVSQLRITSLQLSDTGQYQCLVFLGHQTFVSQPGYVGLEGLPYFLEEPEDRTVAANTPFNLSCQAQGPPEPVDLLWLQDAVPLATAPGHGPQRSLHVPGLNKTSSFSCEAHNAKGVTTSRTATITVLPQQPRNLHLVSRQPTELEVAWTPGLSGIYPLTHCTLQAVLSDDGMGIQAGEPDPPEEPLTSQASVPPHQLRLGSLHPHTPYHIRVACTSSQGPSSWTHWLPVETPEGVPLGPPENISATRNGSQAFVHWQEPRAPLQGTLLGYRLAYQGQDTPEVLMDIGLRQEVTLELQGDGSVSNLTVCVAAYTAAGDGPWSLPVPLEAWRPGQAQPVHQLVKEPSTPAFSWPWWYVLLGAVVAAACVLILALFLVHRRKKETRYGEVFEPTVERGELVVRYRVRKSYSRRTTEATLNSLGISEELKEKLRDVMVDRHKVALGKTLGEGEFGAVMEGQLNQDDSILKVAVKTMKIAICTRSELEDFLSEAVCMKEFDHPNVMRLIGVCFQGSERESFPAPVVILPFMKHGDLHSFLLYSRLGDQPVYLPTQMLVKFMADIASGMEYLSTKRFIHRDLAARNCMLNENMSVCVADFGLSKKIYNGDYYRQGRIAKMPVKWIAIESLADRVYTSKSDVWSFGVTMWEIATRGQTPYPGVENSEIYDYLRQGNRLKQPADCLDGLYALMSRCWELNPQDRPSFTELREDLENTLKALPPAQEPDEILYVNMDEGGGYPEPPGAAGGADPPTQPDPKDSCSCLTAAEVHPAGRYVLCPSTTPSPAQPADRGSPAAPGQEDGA
Kind of test: TR-FRET kinase activity assay, AXL. Format: biochemical. As to conditions: ATP at Km, 60 minutes. In a few lines:
as §1

Turning to `COC[C@H](C)Nc1ncc2c(C3=C[C@H]4CC[C@@H](C3)N4C)cc([C@H]3CC[C@H](O)CC3)n2n1` [Compound 494], the half-inhibitory concentration (IC50) against TYRO3 and against AXL was no more than 100 nM in each case.
For the compound `COC[C@H](C)Nc1ncc2c(-c3cnn(C(C)(C)C(=O)N4Cc5nc(C)sc5C4)c3)cc([C@H]3CC[C@H](O)CC3)n2n1` [Compound 495], the half-maximal inhibitory concentration (IC50) against TYRO3 and against AXL was no more than 100 nM each time.
Take `COC[C@H](C)Nc1ncc2c(-c3cnn(C(C)(C)C(=O)C4CCc5sc(C)nc5C4)c3)cc([C@H]3CC[C@H](O)CC3)n2n1` (stereo partly drawn) [Compound 496]: the IC50 at TYRO3 and against AXL was no more than 100 nM in each case.
Take `COC[C@H](C)Nc1ncc2c(CC#N)cc([C@H]3CC[C@H](O)CC3)n2n1` [Compound 497]: the half-maximal inhibitory concentration (IC50) on TYRO3 is no more than 100 nM; against AXL, 100 to 1000 nM.
The like results for `COC[C@H](C)Nc1ncc2c(-c3cccc(C4CCc5nc(C)[nH]c5C4)c3)cc([C@H]3CC[C@H](O)CC3)n2n1` (stereo partly drawn) [Compound 498] were, in that order, no more than 100 nM and no more than 100 nM.
As for `C[C@@H](CC(F)(F)F)Nc1ncc2c(C3=C[C@@H]4CC[C@H](C3)N4)cc([C@H]3CC[C@H](O)CC3)n2n1` [Compound 499], the IC50 against TYRO3 and on AXL was no more than 100 nM each time.
Turning to `COC[C@H](C)Nc1ncc2c(-c3ccnc(N4CCN(C(=O)C5COC5)CC4)c3)cc([C@H]3CC[C@H](O)CC3)n2n1` [Compound 500], the half-inhibitory concentration (IC50) on TYRO3 and against AXL was no more than 100 nM throughout.
Consider `COC[C@H](C)Nc1ncc2c(-c3cnn(C4COC4)c3)cc(-c3ccc(O)nc3)n2n1` [Compound 501], for which the half-maximal inhibitory concentration (IC50) at TYRO3 was no more than 100 nM; against AXL it was 100 to 1000 nM.
The like results for `COC[C@H](C)Nc1ncc2c(-c3cnn(C4COC4)c3)cc(-c3ccc(OC)cc3)n2n1` [Compound 502] were, in that order, no more than 100 nM and 100 to 1000 nM.
On to `COC[C@H](C)Nc1ncc2c(-c3cnn(C4COC4)c3)cc(C3CCOCC3)n2n1` [Compound 503], for which the figures for the IC50 against TYRO3 and against AXL were no more than 100 nM and 100 to 1000 nM, respectively.
`COC[C@H](C)Nc1ncc2c(-c3ccnc(N4CCN(C(=O)OC5COC5)CC4)c3)cc([C@H]3CC[C@H](O)CC3)n2n1` [Compound 504]: the IC50 against TYRO3 and against AXL was no more than 100 nM each time.
In the case of `COC[C@H](C)Nc1ncc2c(-c3ccnc(F)c3)cc([C@H]3CC[C@H](O)CC3)n2n1` [Compound 505], the IC50 against TYRO3 and at AXL was no more than 100 nM throughout.
As to `COC[C@H](C)Nc1ncc2c(-c3cnn(CC(C)(C)N4CCOCC4)c3)cc([C@H]3CC[C@H](O)CC3)n2n1` [Compound 507], the IC50 on TYRO3 and at AXL was no more than 100 nM each time.
Take `COC[C@H](C)Nc1ncc2c(-c3conc3C)cc([C@H]3CC[C@H](O)CC3)n2n1` [Compound 508]: the IC50 against TYRO3 and against AXL was no more than 100 nM in each case.
As for `COC[C@H](C)Nc1ncc2c(-c3ccnc(N4CCc5nc(C)sc5C4)c3)cc([C@H]3CC[C@H](O)CC3)n2n1` [Compound 509], the IC50 at TYRO3 and against AXL was no more than 100 nM in each case.
